Results on 15 compounds are retold here after ChEMBL document CHEMBL3132850, “5-Nor carbocyclic nucleosides: unusual nonnucleoside inhibitors of HIV-1 reverse transcriptase” (Medchemcomm, 2013).

SMILES strings stand for the structures. pEC50, pIC50: −log10 of the molar value. The source made the active and inactive calls. The rule behind the calls is not given here.

The target of data set [1] is Human immunodeficiency virus type 1 reverse transcriptase (Human immunodeficiency virus 1, UniProt Q72547, V106A). Kind of data set: Inhibition of HIV1 reverse transcriptase V106A mutant expressed in Escherichia coli BL21 (DE3) using [alpha-32P]dATP after 30 mins by liquid scintillation counting.
The subject of data set [2] is Human alphaherpesvirus 1. Kind of data set: Antiviral activity against Herpes simplex virus-1 KOS. The format is functional, organism-based.
The test system of data set [3] is Human immunodeficiency virus 1. Kind of data set: Ratio of IC50 for HIV1 wild type reverse transcriptase to IC50 for HIV1 reverse transcriptase L100I mutant.
Data set [4] in a line: Solubility of the compound in 10% DMSO up to 50 uM. The format is physicochemical.
In data set [5] the test system is Vesicular stomatitis virus. In words: Antiviral activity against Vesicular stomatitis virus. It is filed as functional, organism-based.
Data set [6] relates to Mammalian orthoreovirus 1. Kind of data set: Antiviral activity against Reovirus-1. It is filed as functional, organism-based.
The subject of data set [7] is Influenza B virus. In words: Antiviral activity against Influenza B virus. The format is functional, organism-based.
Data set [8] concerns Influenza A virus H3N2. Kind of data set: Antiviral activity against Influenza A virus H3N2. It is filed as functional, organism-based.
The test system of data set [9] is Respiratory syncytial virus. Kind of data set: Antiviral activity against Respiratory syncytial virus. It is filed as functional, organism-based.
Data set [10] is described as follows: Cytotoxicity against human CEM cells after 3 days. The format is cell-based. The following applies: CEM cells (CCRF-CEM).
Data set [11] addresses Human immunodeficiency virus type 1 reverse transcriptase (Human immunodeficiency virus 1, UniProt Q72547, L100I). In words: Inhibition of HIV1 reverse transcriptase L100I mutant expressed in Escherichia coli BL21 (DE3) using [alpha-32P]dATP after 30 mins by liquid scintillation counting.
Data set [12] concerns Human alphaherpesvirus 3. In words: Antiviral activity against Varicella-zoster virus. It is filed as functional, organism-based.
For data set [13], the target named is Human immunodeficiency virus type 1 reverse transcriptase (Human immunodeficiency virus 1) (UniProt Q72547). Kind of data set: (§1) Inhibition of HIV1 wild type reverse transcriptase expressed in Escherichia coli BL21 (DE3) using [alpha-32P]dATP after 30 mins by liquid scintillation counting.
Data set [14] concerns the target Human immunodeficiency virus type 1 reverse transcriptase (Human immunodeficiency virus 1, UniProt Q72547). The data set is described as §1.
The target of data set [15] is Human immunodeficiency virus type 1 reverse transcriptase (Human immunodeficiency virus 1, UniProt Q72547, G190A). Kind of data set: Inhibition of HIV1 reverse transcriptase G190A mutant expressed in Escherichia coli BL21 (DE3) using [alpha-32P]dATP after 30 mins by liquid scintillation counting.
For data set [16], the system named is Coxsackievirus B4. Kind of data set: Antiviral activity against Coxsackievirus B4. It is filed as functional, organism-based.
In data set [17] the test system is Sindbis virus. Kind of data set: Antiviral activity against Sindbis virus. The format is functional, organism-based.
Data set [18] has as its system Human alphaherpesvirus 2. In words: Antiviral activity against Herpes simplex virus-2 G. Conditions: strain G. It is filed as functional, organism-based.
For data set [19], the system named is Vaccinia virus. Kind of data set: Antiviral activity against Vaccinia virus. It is filed as functional, organism-based. Conditions: Orthopoxvirus vaccinia.
In data set [20] the test system is Influenza A virus. Kind of data set: Antiviral activity against Influenza A virus H1N1. The format is functional, organism-based.
Data set [21] deals with Human respirovirus 3. In words: Antiviral activity against Parainfluenza virus 3. It is filed as functional, organism-based.
In data set [22] the target is Human immunodeficiency virus type 1 reverse transcriptase (Human immunodeficiency virus 1, UniProt Q72547, K103N). In words: Inhibition of HIV1 reverse transcriptase K103N mutant expressed in Escherichia coli BL21 (DE3) using [alpha-32P]dATP after 30 mins by liquid scintillation counting.
Data set [23] concerns Feline coronavirus. Kind of data set: Antiviral activity against Feline coronavirus. The format is functional, organism-based.
The target in data set [24] is Human immunodeficiency virus type 1 reverse transcriptase (Human immunodeficiency virus 1, UniProt Q72547, Y181C). Kind of data set: Inhibition of HIV1 reverse transcriptase Y181C mutant expressed in Escherichia coli BL21 (DE3) using [alpha-32P]dATP after 30 mins by liquid scintillation counting.
Data set [25] deals with Punta Toro virus. In words: Antiviral activity against Punta Toro virus. It is filed as functional, organism-based.
Data set [26] has as its target Human immunodeficiency virus type 1 reverse transcriptase (Human immunodeficiency virus 1, UniProt Q72547, K103N/Y181C). Kind of data set: Inhibition of HIV1 reverse transcriptase K103N/Y181C mutant expressed in Escherichia coli BL21 (DE3) using [alpha-32P]dATP after 30 mins by liquid scintillation counting.
For data set [27], the system named is Human immunodeficiency virus 1. Kind of data set: Antiviral activity against HIV1 3B infected in human CEM cells assessed as reduction of giant cell formation after 4 days by microscopic analysis. It is filed as functional, organism-based. The following applies: Human immunodeficiency virus 1, 3B, CCRF-CEM, 96 h.

Take `Cc1cc(C)cc(Cn2c(=O)ccn(C3C=CC(OC(=O)c4ccccc4)C3)c2=O)c1` (racemic): the negative-log IC50 (pIC50) was below 4.30 in [1]; 4.95 in [11]; below 4.30 in data set [14]; below 4.30 in data set [15]; below 4.30 in data set [22]; below 4.30 in data set [24]. The compound further gave a pIC50 in data set [26] below 4.30. Further, the outcome in data set [2], in data set [5], in data set [6], in data set [7], in data set [8] and in [9] was inactive. Also, the outcome in [12], in data set [16], in data set [17], in data set [18], in data set [19] and in [20] was inactive. Besides, the result in data set [21], in data set [23] and in [25] was inactive. Besides, the Ratio IC50 in data set [3] was determined as 10. In [4], the solubility result is on record as “soluble”. The compound also displayed a CC50 at 72 h in data set [10] of 40 µM. Further, in data set [13], the inhibition entry was “Dose-dependent effect”. Further, in data set [27], the pEC50 is below 5.00.
With `Cc1cc(=O)n(Cc2ccccc2)c(=O)n1C1C=CC(OC(=O)c2ccccc2)C1` (racemic), half-maximal cytotoxicity in data set [10] (CC50 at 72 h) was put at 34 µM. In [14], this compound had a pIC50 below 4.30. In data set [27], the pEC50 was below 5.00.
As for `Cc1ccc(Cn2c(=O)ccn(C3C=CC(OC(=O)c4ccccc4)C3)c2=O)cc1` (racemic), the pIC50 is below 4.30 in [1]; 5.62 in data set [11]; 4.73 in [14]; below 4.30 in [15]; 4.26 in data set [22]; below 4.30 in [24]. Also, the pIC50 in data set [26] was below 4.30. The outcome in [2], in data set [5], in data set [6], in data set [7], in [8] and in data set [9] was inactive. Moreover, the result in [12], in data set [16], in data set [17], in [18], in data set [19] and in data set [20] was inactive. Also, the result in data set [21], in [23] and in data set [25] was inactive. The CC50 at 72 h in data set [10] is above 25 µM. Moreover, the pEC50 in data set [27] is below 5.00.
`Cc1cc(=O)[nH]c(=O)n1C1C=CC(OC(=O)c2ccccc2)C1` (racemic) registered a CC50 at 72 h in data set [10] above 250 µM. Besides, the pIC50 in data set [14] was below 4.00. Further, the pEC50 in data set [27] was below 4.30.
In turn, `O=C(OC1C=CC(n2ccc(=O)n(C(=O)c3ccccc3)c2=O)C1)c1ccccc1` (racemic) came in with a CC50 at 72 h in [10] of at least 250 µM. For the same compound, the pIC50 in [14] was below 4.00. For the same compound, in data set [27], the pEC50 was below 4.30.
`Cc1ccc(Cn2c(=O)cc(C)n(C3C=CC(OC(=O)c4ccccc4)C3)c2=O)cc1` (racemic) returned a CC50 at 72 h in [10] of 20 µM. In data set [14], this compound gave a pIC50 below 4.30. In addition, the pEC50 in data set [27] was below 5.00.
`Cc1cc(=O)n(C(=O)c2ccccc2)c(=O)n1C1C=CC(OC(=O)c2ccccc2)C1` (racemic): in data set [10], half-maximal cytotoxicity (CC50 at 72 h) was put at 191 µM. Moreover, the pIC50 in data set [14] was below 4.00. The pEC50 in data set [27] is below 4.30.
`O=c1ccn(C2C=CC(O)C2)c(=O)n1Cc1ccccc1` (racemic): the CC50 at 72 h in data set [10] is above 250 µM. For the same compound, the pIC50 in data set [14] is below 4.00.
`Cc1ccc(Cn2c(=O)ccn(C3C=CC(OC(=O)c4ccccc4)C3)c2=O)c(C)c1` (racemic) showed a CC50 at 72 h in [10] of 31 µM. The compound also had a pIC50 in data set [14] below 4.30. Further, the pEC50 in data set [27] is below 4.30.
For `O=C(OC1C=CC(n2ccc(=O)n(Cc3ccccc3)c2=O)C1)c1ccccc1` (racemic), the pIC50 in data set [1] was below 4.30; in data set [11] it was 5.92; in data set [14], 4.87; in data set [15] it was below 4.30; in [22], 4.47; in data set [24], below 4.30. Moreover, the pIC50 in [26] is below 4.30. Besides, the outcome in data set [2], in [5], in data set [6], in [7], in data set [8] and in data set [9] was inactive. Also, the outcome in data set [12], in data set [16], in data set [17], in [18], in [19] and in [20] was inactive. For the same compound, the result in data set [21], in data set [23] and in [25] was inactive. This compound also gave a CC50 at 72 h in [10] above 25 µM. In addition, the pEC50 in [27] was below 5.00.
Consider `CC(C)Nc1cccnc1N1CCN(C(=O)c2cc3cc(NS(C)(=O)=O)ccc3[nH]2)CC1` [DELAVIRDINE], for which the CC50 at 72 h in [10] is above 25 µM. The pEC50 in data set [27] was 6.96.
As for `Cc1ccnc2c1NC(=O)c1cccnc1N2C1CC1` [NEVIRAPINE], in data set [10], the CC50 at 72 h was above 25 µM. In addition, the pEC50 in data set [27] is 7.62.
`Cc1cc(C)cc(Cn2c(=O)cc(C)n(C3C=CC(OC(=O)c4ccccc4)C3)c2=O)c1` (racemic) yielded a CC50 at 72 h in [10] of 25 µM. In [14], the pIC50 is below 4.30. Also, in data set [27], the pEC50 is below 5.00.
For the compound `O=C(OC1C=CC(n2ccc(=O)[nH]c2=O)C1)c1ccccc1` (racemic), in data set [10], the CC50 at 72 h is above 250 µM. In [14], this compound had a pIC50 below 4.00. Besides, the pEC50 in [27] was below 3.60.
The matching figures for `O=C(OC1C=CC(n2ccc(=O)n(Cc3cc(F)cc(F)c3)c2=O)C1)c1ccccc1` (racemic): 32 µM, below 4.30 and below 5.00.
